How the values were obtained:
Assay type in all cases: functional, Homo sapiens
SK-OV-3 = experiment: Concentration required for 50% inhibition of proliferation of ovarian cancer cell line, SKOV3 with respect to paclitexal was tested in vitro after 72 hr of incubation
MCF7 = experiment: Concentration required for 50% inhibition of proliferation of breast cancer cell line, MCF-7 with respect to paclitaxel was tested in vitro after 72 hr of incubation
A549 = experiment: Concentration required for 50% inhibition of proliferation of lung cancer cell line, A549 with respect to paclitaxel was tested in vitro after 72 hr of incubation

Row | SMILES | Ratio (SK-OV-3) | Ratio (MCF7) | Ratio (A549)
1 | COc1ccc(OC2O[C@@H](C(=O)O[C@H]3C[C@H]4[C@@H](OC(C)=O)[C@@H]5[C@@H]6CN[C@@H]6CC[C@@]5(C)[C@@H](OC(C)=O)[C@H](OC(C)=O)C(=C3C)C4(C)C)[C@H](c3ccccc3)N2C(=O)c2ccccc2)cc1 (stereo partly drawn) | 9.3 | 8.6 | 6.8
2 | CC(=O)O[C@H]1[C@@H]2[C@@H]3CN(C(C)=O)[C@@H]3CC[C@@]2(C)[C@@H](OC(C)=O)[C@H](OC(C)=O)C2=C(C)[C@@H](OC(=O)[C@H](O)[C@@H](NC(=O)c3ccccc3)c3ccccc3)C[C@@H]1C2(C)C | 5.8 | 3.6 | 2.9
3 | CC(=O)O[C@H]1[C@@H]2[C@@H]3CN[C@@H]3CC[C@@]2(C)[C@@H](OC(C)=O)[C@H](OC(C)=O)C2=C(C)[C@@H](OC(=O)[C@H](O)[C@@H](NC(=O)c3ccccc3)c3ccccc3)C[C@@H]1C2(C)C | 4.6 | 4.9 | 4.5
4 | CC(=O)O[C@H]1C(=O)[C@@]2(C)[C@H]([C@H](OC(=O)c3ccccc3)[C@]3(O)C[C@H](OC(=O)[C@H](O)[C@@H](NC(=O)c4ccccc4)c4ccccc4)C(C)=C1C3(C)C)[C@]1(OC(C)=O)CO[C@@H]1C[C@@H]2O [PACLITAXEL] | 1 | 1 | 1
5 | COc1ccc(OC2O[C@@H](C(=O)O[C@H]3C[C@H]4[C@@H](OC(C)=O)[C@@H]5[C@@H]6CN(C(C)=O)[C@@H]6CC[C@@]5(C)[C@@H](OC(C)=O)[C@H](OC(C)=O)C(=C3C)C4(C)C)[C@H](c3ccccc3)N2C(=O)c2ccccc2)cc1 (stereo partly drawn) | 10.2 | 9.3 | 6.9
6 | CC(=O)O[C@H]1[C@@H]2[C@@H]3CN(C(=O)C(F)(F)F)[C@@H]3CC[C@@]2(C)[C@@H](OC(C)=O)[C@H](OC(C)=O)C2=C(C)[C@@H](OC(=O)[C@H](O)[C@@H](NC(=O)c3ccccc3)c3ccccc3)C[C@@H]1C2(C)C | 4.7 | 3.8 | 3.2

— ChEMBL document CHEMBL1136825, “Synthesis and biological evaluation of 4-deacetoxy-1,7-dideoxy azetidine paclitaxel analogues” (2003)
